The text below walks through data of patent publication US20090099074A1, “MODULATING FOOD INTAKE” (CONJUCHEM BIOTECHNOLOGIES INC., priority 2007, published 2009).

For the experiment, the system named is Male Wistar rats. Description: Refeeding after 24 h fast, subcutaneous injection, sham operated or AP-SFO lesioned rats. It counts as in vivo, rat. How it is done:
Male Wistar rats were either sham operated or subjected to electrolytic lesions of the AP, SFO or both. Two weeks were allowed for recovery after surgeries while body weight, food and water intake were measured daily. Then rats, which were fasted for 24 hours, were subcutaneously injected with anorexigenic doses of PYY-HAS, PYY or saline (for controls) following which free access to food was reallowed. Food and water intake were measured for 24 hours following drug injections. […] However, the anorexigenic effect of both peptides was delayed in AP-SFO-lesioned rats, 1 hour in PYY treated rats and 2 hours in PYY-HAS treated rats.

On to PYY, for which the “delay of anorexigenic effect in AP-SFO-lesioned rats” value (AP-SFO-lesioned rats) was found to be 1 h. Also, where the note is “after 24 hours fast”, the “body weight gain after food deprivation” value is “did not”, the “persistence of anorexigenic effect during refeeding” value is reported as “only during the first two hours of refeeding” and the “time of maximum anorexigenic effect” value is 1 h.
